Test results reported in article PMC6522912, “Evaluation of the published kinase inhibitor set to identify multiple inhibitors of bacterial ATP-dependent mur ligases” (Journal of Enzyme Inhibition and Medicinal Chemistry, 2019).
Like-named read-outs stand apart in the source and are kept apart here.

Experiments:
[1] = molecular target: E. coli MurF (Escherichia coli, UniProt P11880); assay: biochemical; conditions: 0.25 h, Table S1, PKIS screening; read-out: RA [%] at 100 µM MurF
Description: (§1) Inhibition of the Mur ligases was determined using the malachite green assay, with slight modifications.
(§2) In all cases, the final concentration of DMSO was 5% (v/v). After incubation for 15 min at 37 °C, the enzyme reaction was terminated by addition of 100 µM Biomol green reagent, and the absorbance was measured at 650 nm after 5 min. All of the experiments were run in duplicate. Residual activities were calculated with respect to control assays without the tested compounds, but with the 5% DMSO carrier.
(§3) The published kinase inhibitor set compounds were evaluated for inhibition of MurC, D and F ligases from E. coli using the Malachite green assay, which detects orthophosphate generated during enzymatic reactions. To avoid non-specific inhibition due to aggregate formation, all of the compounds were tested in the presence of detergent (0.005% Triton-X114). The data are presented as the residual activities of these Mur ligases in the presence of 100 µM of each test compound (Supporting Information Table S1). […] Additionally, regarding the data of profiled compounds in large panels of human kinase assays[41]

[2] = molecular target: E. coli MurD (Escherichia coli, UniProt P14900); assay: biochemical; conditions: for remaining activity at 100 µM: 0.25 h, Table S1, PKIS screening, read-out: RA [%] at 100 µM MurD
E. coli MurD, sequence (P14900 whole entry): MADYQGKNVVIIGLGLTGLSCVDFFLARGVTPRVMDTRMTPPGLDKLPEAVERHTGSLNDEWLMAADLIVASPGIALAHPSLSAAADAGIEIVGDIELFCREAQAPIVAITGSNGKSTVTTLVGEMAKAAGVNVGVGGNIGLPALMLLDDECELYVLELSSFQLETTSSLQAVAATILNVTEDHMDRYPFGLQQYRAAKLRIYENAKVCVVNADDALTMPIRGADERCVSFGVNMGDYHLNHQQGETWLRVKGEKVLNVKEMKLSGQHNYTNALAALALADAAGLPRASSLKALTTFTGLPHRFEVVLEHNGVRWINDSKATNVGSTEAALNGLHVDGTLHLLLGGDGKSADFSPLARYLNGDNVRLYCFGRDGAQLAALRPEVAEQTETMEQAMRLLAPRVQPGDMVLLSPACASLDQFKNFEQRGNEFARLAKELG
Description: as §1, §2
The published kinase inhibitor set compounds were evaluated for inhibition of MurC, D and F ligases from E. coli using the Malachite green assay, which detects orthophosphate generated during enzymatic reactions. To avoid non-specific inhibition due to aggregate formation, all of the compounds were tested in the presence of detergent (0.005% Triton-X114). The data are presented as the residual activities of these Mur ligases in the presence of 100 µM of each test compound (Supporting Information Table S1).

[3] = molecular target: E. coli MurC (Escherichia coli, UniProt P17952); assay: Malachite green inhibition assay, MurC; assay type: biochemical; conditions: 0.25 h
E. coli MurC, sequence (P17952 whole entry): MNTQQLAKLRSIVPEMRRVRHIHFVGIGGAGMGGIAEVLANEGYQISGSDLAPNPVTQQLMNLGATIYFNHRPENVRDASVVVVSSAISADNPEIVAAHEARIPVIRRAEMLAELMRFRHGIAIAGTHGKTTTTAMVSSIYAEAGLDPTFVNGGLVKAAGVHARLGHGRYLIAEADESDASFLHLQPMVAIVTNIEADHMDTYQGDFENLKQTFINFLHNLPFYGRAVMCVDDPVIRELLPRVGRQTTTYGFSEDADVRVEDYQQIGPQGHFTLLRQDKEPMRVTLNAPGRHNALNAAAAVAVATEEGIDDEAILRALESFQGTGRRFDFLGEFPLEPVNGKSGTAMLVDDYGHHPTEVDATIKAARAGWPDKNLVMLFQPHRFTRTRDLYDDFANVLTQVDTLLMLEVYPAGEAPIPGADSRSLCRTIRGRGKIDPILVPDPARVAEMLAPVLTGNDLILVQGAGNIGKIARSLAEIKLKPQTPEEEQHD
Description: as §1, §2, §3

[4] = Table S1, PKIS screening, read-out: RA [%] at 100 µM MurC
[5] = read-out: RA [%] at 100 µM MurC, Table S1, PKIS screening

E. coli MurF, sequence (P11880 whole entry): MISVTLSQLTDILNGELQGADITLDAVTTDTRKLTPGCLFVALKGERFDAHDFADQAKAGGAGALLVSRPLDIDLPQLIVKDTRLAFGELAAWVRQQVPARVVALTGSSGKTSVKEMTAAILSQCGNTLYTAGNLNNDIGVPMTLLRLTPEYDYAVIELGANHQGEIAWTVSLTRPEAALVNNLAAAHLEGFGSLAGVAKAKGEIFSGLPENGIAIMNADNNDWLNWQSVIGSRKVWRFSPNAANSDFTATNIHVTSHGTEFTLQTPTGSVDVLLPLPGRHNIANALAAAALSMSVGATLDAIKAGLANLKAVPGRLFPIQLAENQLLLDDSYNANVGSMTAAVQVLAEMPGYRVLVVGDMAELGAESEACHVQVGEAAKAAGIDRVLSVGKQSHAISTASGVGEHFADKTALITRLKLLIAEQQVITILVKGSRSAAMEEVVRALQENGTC

Row | Structure (SMILES) | remaining activity at 100 µM [1] [%] | remaining activity at 100 µM [2] [%] | remaining activity at 100 µM [3, 4] [%] | remaining activity at 100 µM [3, 5] [%] | IC50 ([2]; printed in the RA cell of Table S1, read-out: IC50 MurD) [µM]
1 | NC(=O)c1cc(-c2ccc(F)cc2)cc(-c2ccncc2)c1N [GSK620503A] | 80 | 71 | 94 |  | 
2 | NC(=O)c1cc(-c2ccncc2)cc(-c2ccccc2)c1N [GSK625137A] | 84 | 95 | 65 |  | 
3 | CNC(=O)c1cc(-c2ccc(F)cc2)cc(-c2ccc(S(=O)(=O)N3CCCC3)cc2)c1N [GSK635416A] | 88 | 43 | 71 |  | 
4 | COc1c(C(N)=O)cc(-c2ccc(Cl)cc2)cc1-c1ccc(S(N)(=O)=O)cc1 [GSK711701A] | 93 | 99 | 100 |  | 
5 | CCn1cc(-c2ccnc3[nH]ccc23)c(-c2cccc(NC(=O)Nc3ccc(OCc4ccccc4)cc3)c2)n1 [GSK718429A] | 99 | 83 | 94 |  | 
6 | CCn1c(-c2nonc2N)nc2c(C#CC(C)(C)O)nc(OC[C@@H](N)c3ccccc3)cc21 [GSK938890A] | 92 | 80 | 76 |  | 
7 | CCn1c(-c2nonc2N)nc2c(C#CC(C)(C)O)nc(OCCNC)cc21 [GSK949675A] | 74 | 85 | 73 |  | 
8 | NS(=O)(=O)c1cccc(-c2cc3ccncc3cc2OCc2ccccc2)c1 [GSK980961A] | 66 | 86 | 80 |  | 
9 | NC(=O)c1sc(-n2cnc3ccccc32)cc1OCc1ccccc1Br [GSK1023156A] | 84 | 82 | 55 |  | 
10 | COC(=O)c1sc(-n2cnc3cc(OC)c(OC)cc32)cc1OCc1ccccc1C(F)(F)F [GSK1030058A] | 55 | 78 | 32 |  | 
11 | COc1cc2ncn(-c3cc(OCc4ccccc4C(F)(F)F)c(C(=O)N(C)C)s3)c2cc1OC [GSK1030062A] | 63 | 76 | 68 |  | 
12 | COc1cc(N2CCN(C(C)C)CC2)ccc1Nc1nc(Nc2ccc(F)cc2C(N)=O)c2cc[nH]c2n1 [GSK1220512A] | 54 | 48 |  | 2 | 
13 | CCCN1CCC(c2ccc(Nc3nc(Nc4cc(F)ccc4C(N)=O)c4cc[nH]c4n3)c(OC)c2)CC1 [GSK1326255A] | 4 | 9 | 0 |  | 39
14 | COc1cc(N2CCN(C(C)C)CC2)ccc1Nc1nc(Nc2ccc(F)cc2C(=O)NC[C@@H](O)CO)c2cc[nH]c2n1 [GSK1392956A] | 90 | 76 | 65 |  | 
15 | CCCN1CCC(Oc2cc(Nc3nc(Nc4cccc(F)c4C(N)=O)c4cc[nH]c4n3)c(OC)cc2Cl)CC1 [GSK1713088A] | 85 | 54 | 59 |  | 
16 | COc1cc2c(cc1Nc1nc(Nc3cccc(F)c3C(N)=O)c3cc[nH]c3n1)N(C(=O)CN1CCN(C(C)C)CC1)CC2 [GSK1751853A] | 89 | 74 | 55 |  | 
17 | COc1cc(N2CCN(C(C)C)CC2)ccc1Nc1nc(Nc2cccc(F)c2C(=O)O)c2cc[nH]c2n1 [GSK1819799A] | 39 | 37 | 0 |  | 
18 | COc1cc2c(cc1Nc1nc(N3CCc4ccccc43)c3cc[nH]c3n1)N(C(=O)CN(C)C)CC2 [GSK2186269A] | 26 | 100 | 23 |  | 
19 | COc1cc(C)c(N(C)C(=O)CN(C)C)cc1Nc1nc(Nc2cccc(F)c2C(N)=O)c2cc[nH]c2n1 [GSK2219385A] | 93 | 93 |  | 73 | 
20 | CNC(=O)c1ncccc1Nc1nc(Nc2cc3c(cc2OC)CCCN3C(=O)CN(C)C)nc2[nH]ccc12 [GSK2220400A] | 81 | 84 |  | 69 | 
21 | NS(=O)(=O)c1cccc(N/C=C2\C(=O)Nc3ccccc32)c1 [GW275616X] | 83 | 88 | 84 |  | 
22 | Cc1ccc2c(c1)C(=NNc1ccc(S(N)(=O)=O)cc1)C(=O)N2 [GW275944X] | 83 | 87 | 92 |  | 

Row | Structure (SMILES) | remaining activity at 100 µM [1] [%] | remaining activity at 100 µM [2] [%] | remaining activity at 100 µM [3, 4] [%] | remaining activity at 100 µM [3, 5] [%] | IC50 ([2]; printed in the RA cell of Table S1, read-out: IC50 MurD) [µM]
23 | NS(=O)(=O)c1ccc(N/N=C2\C(=O)Nc3ccc(-c4cnco4)cc32)cc1 [GW276655X] | 22 | 73 | 84 |  | 
24 | CS(=O)(=O)Nc1ccc(N/C=C2\C(=O)Nc3ccccc32)cc1 [GW278681X] | 77 | 89 | 71 |  | 
25 | Cc1cc(Cl)cc2c1NC(=O)C2=NNc1ccc(S(N)(=O)=O)cc1 [GW279320X] | 0 | 78 | 76 |  | 
26 | NS(=O)(=O)c1ccc(N/N=C2\C(=O)Nc3ccc(Cl)cc32)cc1 [GW280670X] | 76 | 99 | 100 |  | 
27 | COc1cc2ncnc(Nc3ccc4c(cnn4Cc4ccccc4)c3)c2cc1OC [GW282449A] | 56 | 62 | 53 |  | 
28 | CN(C)c1cc2c(Nc3ccc4c(cnn4Cc4ccccc4)c3)ncnc2cn1 [GW282974X] | 55 | 70 | 77 |  | 
29 | c1ccc(COc2ccc(Nc3ncnc4ccc(-c5ccco5)cc34)cc2)cc1 [GW284372X] | 100 | 80 | 56 |  | 
30 | O=C1Nc2ccccc2/C1=C/Nc1ccc2[nH]c(=O)[nH]c2c1 [GW284408X] | 86 | 86 | 105 |  | 
31 | NS(=O)(=O)c1ccc(NN=C2C(=O)Nc3ccc(C(=O)NCCCn4ccnc4)cc32)cc1 [GW290597X] | 100 | 92 | 63 |  | 
32 | COc1ccc2[nH]c3c4[nH]c5ccc(OC)cc5c4c4c(c3c2c1)C(=O)NC4=O [GW296115X] | 100 | 87 | 100 |  | 
33 | NS(=O)(=O)c1ccc(N/C=C2\C(=O)Nc3ccc4ncsc4c32)cc1 [GW297361X] | 86 | 76 | 107 |  | 
34 | CC(C)c1ccc2c(c1)NC(=O)C2=NNc1ccc(S(N)(=O)=O)cc1 [GW300653X] | 75 | 85 | 100 |  | 
35 | NS(=O)(=O)c1ccc(NN=C2C(=O)Nc3ccc(C(=O)NCc4ccncc4)cc32)cc1 [GW300657X] | 85 | 96 | 75 |  | 
36 | NS(=O)(=O)c1ccc(N/N=C2\C(=O)Nc3ccc(C(=O)NCCc4c[nH]cn4)cc32)cc1 [GW300660X] | 96 | 90 | 58 |  | 
37 | O=C1Nc2ccccc2/C1=C/Nc1ccc(-n2cncn2)cc1 [GW301789X] | 75 | 91 | 64 |  | 
38 | CN(C)c1cc2c(Nc3ccc4nc(Cc5ccccc5)[nH]c4c3)ncnc2cn1 [GW301888X] | 75 | 80 | 83 |  | 
39 | O=C1Nc2ccc(I)cc2C1=Cc1cc(Br)c(O)c(Br)c1 [GW305074X] | 78 | 92 | 100 |  | 
40 | NS(=O)(=O)c1ccc(N/N=C2\C(=O)Nc3ccc4ncccc4c32)cc1 [GW305178X] | 56 | 57 | 52 |  | 
41 | C/C(Nc1ccc(S(N)(=O)=O)cc1)=C1/C(=O)Nc2ccccc21 [GW335962X] | 88 | 76 | 72 |  | 
42 | NS(=O)(=O)c1ccc(NN=C2C(=O)Nc3cccc(CCc4ccncc4)c32)cc1 [GW352430A] | 37 | 90 | 64 |  | 
43 | COC(=O)c1ccc2c(c1)C(=Cc1cc(Br)c(O)c(Br)c1)C(=O)N2 [GW405841X] | 75 | 82 | 93 |  | 
